We go through two compounds from PMC7994357, “Gene Expression, Biochemical Characterization of a sn-1, 3 Extracellular Lipase From Aspergillus niger GZUF36 and Its Model-Structure Analysis” (Frontiers in Microbiology, 2021).

This test deals with T1, PEXANL1 (Aspergillus niger, UniProt A0A5C2GD86).
T1 construct: mature peptide (278 residues of 297, signal peptide removed), extra N-terminal residues, C-terminal 6xHis kept; secreted from Pichia pastoris GS115 (pPIC9K, codon-optimised), Ni-NTA purified, Endo Hf deglycosylated
T1 sequence (A0A5C2GD86 20-297): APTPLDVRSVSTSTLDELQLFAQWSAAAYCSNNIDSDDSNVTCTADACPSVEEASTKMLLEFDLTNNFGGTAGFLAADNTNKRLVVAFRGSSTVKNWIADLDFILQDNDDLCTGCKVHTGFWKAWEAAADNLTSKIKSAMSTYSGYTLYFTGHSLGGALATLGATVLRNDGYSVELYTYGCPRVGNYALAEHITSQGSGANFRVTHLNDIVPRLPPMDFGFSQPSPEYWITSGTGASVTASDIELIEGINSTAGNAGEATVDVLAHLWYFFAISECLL
As to the kind of experiment: ultrasound-assisted solvent-free esterification, HPLC of glycerides. The test is classed as biochemical. The note with it: 40 °C, ultrasound 200 W, 40 kHz.

On to `CCCCCCCC/C=C\CCCCCCCC(=O)O` [oleic acid], for which, where the note is “co-substrate glycerol (glycerol to oleic acid 5:1 molar)”, the “ultrasound-assisted solvent-free esterification, HPLC of glycerides” value is “Ultrasound-assisted esterification of oleic acid (OA) with glycerol was studied”. As to `OCC(O)CO` [glycerol], the “ultrasound-assisted solvent-free esterification, HPLC of glycerides” value (co-substrate oleic acid (glycerol to oleic acid 5:1 molar)) is on record as “Ultrasound-assisted esterification of oleic acid (OA) with glycerol was studied”.
